Assay results taken from EP3345917A1, “ANTIPROTOZOAL COMPOUNDS” (Bacoba AG, priority 2017, dated 2018).
Read-outs that look alike come from different tables or passages of the source. Non-standard residues stand in square brackets, D forms with d. Residues, ends and D or L forms follow the SMILES beside them. *: point of attachment. CH3O(CH2CH2O)11CH2CH2CO = COCCOCCOCCOCCOCCOCCOCCOCCOCCOCCOCCOCCC(=O)*; Hexenoyl(2E,4S-Me) = CC[C@H](C)/C=C/C(=O)*; Leu(3R-OH) = CC(C)[C@@H](O)[C@H](N)C(=O)O; NH((S)CH(Me)CH2NMe2) = C[C@@H](CN(C)C)N*; NH(1-CH2NMe2-cBu) = CN(C)CC1(N*)CCC1; Gly(octyl) = CCCCCCCC[C@H](N)C(=O)O; Oxazole4CO(2-Me) = Cc1nc(C(=O)*)co1; X3 = O=C(c1coc(-c2ccccc2)n1)*; Morpholide = C1CN(*)CCO1; X24 = CN1CC2(C1)CN(*)C2; X25 = CN(C)CC1(N*)CCCC1; X23 = CN1CCC12CN(*)C2; Aib = CC(C)(N)C(=O)O; βAla = NCCC(=O)O

Assays:
[1] = tested on: Trypanosoma brucei rhodesiense (STIB 900 strain); test: Alamar Blue assay against Trypanosoma brucei rhodesiense grown in axenic medium; assay type: cell-based
Description: (§1) Tests were done in triplicate.
Trypanosoma brucei rhodesiense (STIB 900) were grown in axenic medium as described by Baltz et al. (1985) The samples were tested using the Alamar Blue assay protocol (Baltz T et al. EMBO J 1985; 4:1273-1277) to determine the 50% inhibitory concentration (IC50). […] Melarsoprol (Arsobal®, Sanofi-Aventis, Switzerland) was used as a reference drug (IC50= 0.03 ± 0.01 µM). Its purity was over 95 %, as was certified by the supplier. The IC50 values were calculated by using Softmax Pro software (Molecular Devices Cooperation, Sunnyvale, CA).

[2] = tested on: Trypanosoma cruzi trypomastigote forms (Tulahuen strain); test: Intracellular Trypanosoma cruzi assay in L6-cells, beta-galactosidase/CPRG readout; assay type: cell-based
Description: as §1
Trypanosoma cruzi trypomastigote forms (Tulahuen strain C2C4 containing β-galactosidase (Lac Z) gene) were cultured as described by Buckner et al. (Buckner FS et al. Antimicrob Agents Ch1996; 40: 2592-2597) in rat myoblast cells (L6-cells). […] After incubation, the substrate chlorophenyl red β-D-galactopyranoside agent CPRG/Nonident was added to all wells and a color change was developed within 2 to 6 h. The plates were read photometrically at 540 nm (Molecular Devices). Data were evaluated and IC50 values calculated using Softmax Pro software (Molecular Devices).

[3] = tested on: Axenically grown Leishmania donovani amastigotes (strain MHOM/ET/67/L82); test: Axenic Leishmania donovani amastigote resazurin assay; assay type: cell-based
Description: as §1
Axenically grown Leishmania donovani amastigotes (strain MHOM/ET/67/L82) were grown and tests were done as previously described using the resazurin assay (Räz B et al. Acta Tropica 1997, 68:139-147). The plates were developed for 2-4 hours and read on a Spectramax Gemini XS micro plate fluorometer (Molecular Devices Cooperation) using an excitation wavelength of 536 nm and emission wavelength of 588 nm. Fluorescence development was measured and expressed as percentage of the negative control. […] Data were transferred to the graphic programme Softmax Pro (Molecular Devices), with which IC50 values were calculated.

[4] = Cytotoxicity assay on L6-cells (Alamar Blue); settings: rat, Cytotox L6, Cytotoxicity against rat myoblast cells (L6)
[5] = In vitro inhibition, read-out: T.b.rhod.
[6] = In vitro inhibition, read-out: T.cruzi.
[7] = In vitro inhibition, read-out: L.don. ax

| SMILES | IC50 [1, 5] | IC50 [2, 6] | IC50 [3, 7] | IC50 at 70 h [4] | other results |
| --- | --- | --- | --- | --- | --- |
| CCCCCCCC[C@H](NC(=O)[C@@H]1CCCN1C(=O)c1coc(C)n1)C(=O)N[C@@H](CC(C)C)C(=O)NC(C)(C)C(=O)N[C@@H](CC(C)C)C(=O)N[C@@H](CC(C)C)C(=O)NC(C)(C)C(=O)NC(C)(C)C(=O)NCCC(=O)NC1(CN(C)C)CCCC1 [Compound 6254, (2S)-N-[(1S)-1-[(1-{[(1S)-1-{[(1S)-1-({1-[(1-{[2-({1-[(dimethylamino)methyl]cyclopentyl}carbamoyl)ethyl]carbamoyl}-1-methylethyl)carbamoyl]-1methylethyl}carbamoyl)-3-methylbutyl]carbamoyl}-3-methylbutyl]carbamoyl}-1-methylethyl)carbamoyl]-3-methylbutyl]-2-{[(2S)-1-(2-methyl-1,3-oxazole-4-carbonyl)pyrrolidin-2-yl]formamido}decanamide] ({Oxazole4CO(2-Me)}-P[Gly(octyl)]L[Aib]LL[Aib][Aib][βAla]-X25) | < 0.8 nM | 34.6 nM | 13900 nM | – | – |
| CCCCCCCCCCCCCCCCOP(=O)([O-])OCC[N+](C)(C)C [Miltfosine] | – | – | – | – | IC50 ([3]; Leishmania donovani, reference drug, axenic L. donovani amastigotes, resazurin assay, read-out: IC50): 0.241 µg/mL |
| CCCCCCCC[C@H](NC(=O)[C@@H]1CCCN1C(=O)c1coc(C)n1)C(=O)N[C@@H](CC(C)C)C(=O)NC(C)(C)C(=O)N[C@@H](CC(C)C)C(=O)N[C@@H](CC(C)C)C(=O)NC(C)(C)C(=O)NC(C)(C)C(=O)NCCC(=O)N1CC2(CCN2C)C1 [Compound 6255, (2S)-2-{[(2S)-1-(2-methyl-1,3-oxazole-4-carbonyl)pyrrolidin-2-yl]formamido}-N-[(1S)-3-methyl-1-[(1-methyl-1-[(1S)-3-methyl-1-{[(1S)-3-methyl-1-{{[1-methyl-1-({1-methyl-1-[(3-{1-methyl-1,6-diazaspiro[3.3]heptan-6-yl}-3-oxopropyl)carbamoyl]ethyl}carbamoyl)ethyl]carbamoyl}butyl]carbamoyl}butyl]carbamoyl}ethyl)carbamoyl]butyl]decanamide] ({Oxazole4CO(2-Me)}-P[Gly(octyl)]L[Aib]LL[Aib][Aib][βAla]-X23) | 461 nM | 3710 nM | 4090 nM | 7170 nM | – |
| CCCCCCCC[C@H](NC(=O)[C@@H]1CCCN1C(=O)/C=C/[C@@H](C)CC)C(=O)N[C@H](C(=O)NC(C)(C)C(=O)N[C@@H](CC(C)C)C(=O)N[C@@H](CC(C)C)C(=O)NC(C)(C)C(=O)NC(C)(C)C(=O)NCCC(=O)N1CCOCC1)[C@H](O)C(C)C [Compound 5572] ({Hexenoyl(2E,4S-Me)}-P[Gly(octyl)][Leu(3R-OH)][Aib]LL[Aib][Aib][βAla]-Morpholide) | – | – | – | 1420 nM | – |
| Nc1nc(N)nc(Nc2ccc([As]3SCC(CO)S3)cc2)n1 (centres unmarked) [Melarsoprol, melarsoprol] | – | – | – | – | IC50 ([1]; read-out: T.b.rhod.): 7 nM; IC50 ([1]; reference drug, T. b. rhodesiense STIB 900, Alamar Blue, read-out: IC50): 30 ± 10 nM |
| CCCCCCCC[C@H](NC(=O)[C@@H]1CCCN1C(=O)CCOCCOCCOCCOCCOCCOCCOCCOCCOCCOCCOCCOC)C(=O)N[C@@H](CC(C)C)C(=O)NC(C)(C)C(=O)N[C@@H](CC(C)C)C(=O)N[C@@H](CC(C)C)C(=O)NC(C)(C)C(=O)NC(C)(C)C(=O)NCCC(=O)N[C@@H](C)CN(C)C [Compound 6067, (2S)-N-[(1S)-1-[(1-{[(1S)-1-{[(1S)-1-{[1-({1-[(2-{[(2S)-1-(dimethylamino)propan-2-yl]carbamoyl}ethyl)carbamoyl]-1-methylethyl}carbamoyl)-1-methylethyl]carbamoyl}-3-methylbutyl]carbamoyl}-3-methylbutyl]carbamoyl}-1-methylethyl)carbamoyl]-3-methylbutyl]-2-{[(2S)-1-(2,5,8,11,14,17,20,23,26,29,32,35-dodecaoxaoctatriacontanoyl)pyrrolidin-2-yl]formamido}decanamide] ({CH3O(CH2CH2O)11CH2CH2CO}-P[Gly(octyl)]L[Aib]LL[Aib][Aib][βAla]-{NH((S)CH(Me)CH2NMe2)}) | – | – | – | 4640 nM | – |
| CCCCCCCC[C@H](NC(=O)[C@@H]1CCCN1C(=O)c1coc(C)n1)C(=O)N[C@@H](CC(C)C)C(=O)NC(C)(C)C(=O)N[C@@H](CC(C)C)C(=O)N[C@@H](CC(C)C)C(=O)NC(C)(C)C(=O)NC(C)(C)C(=O)NCCC(=O)NC1(CN(C)C)CCC1 [Compound 6253, (2S)-N-[(1S)-1-[(1-{[(1S)-1-{[(1S)-1-({1-[(1-{[2-({1-[(dimethylamino)methyl]cyclobutyl}carbamoyl)ethyl]carbamoyl}-1-methylethyl)carbamoyl]-1-methylethyl}carbamoyl)-3-methylbutyl]carbamoyl}-3-methylbutyl]carbamoyl}-1-methylethyl)carbamoyl]-3-methylbutyl]-2-{[(2S)-1-(2-methyl-1,3-oxazole-4-carbonyl)pyrrolidin-2-yl]formamido}decanamide] ({Oxazole4CO(2-Me)}-P[Gly(octyl)]L[Aib]LL[Aib][Aib][βAla]-{NH(1-CH2NMe2-cBu)}) | < 0.9 nM | 68.4 nM | 46800 nM | – | – |
| CCCCCCCC[C@H](NC(=O)[C@@H]1CCCN1C(=O)/C=C/[C@@H](C)CC)C(=O)N[C@H](C(=O)NC(C)(C)C(=O)N[C@@H](CC(C)C)C(=O)N[C@@H](CC(C)C)C(=O)NC(C)(C)C(=O)NC(C)(C)C(=O)NCCC(=O)N[C@@H](C)CN(C)C)[C@@H](C)O [Compound 5520] ({Hexenoyl(2E,4S-Me)}-P[Gly(octyl)]T[Aib]LL[Aib][Aib][βAla]-{NH((S)CH(Me)CH2NMe2)}) | – | – | – | 930 nM | – |
| O=C(Cn1ccnc1[N+](=O)[O-])NCc1ccccc1 [Benznidazol] | – | – | – | – | IC50 ([2]; TULAHUEN, In vitro inhibition, intracellular Trypanosoma cruzi, read-out: T.cruzi.): 2080 nM |
| CCCCCCCC[C@H](NC(=O)[C@@H]1CCCN1C(=O)c1coc(C)n1)C(=O)N[C@@H](CC(C)C)C(=O)NC(C)(C)C(=O)N[C@@H](CC(C)C)C(=O)N[C@@H](CC(C)C)C(=O)NC(C)(C)C(=O)NC(C)(C)C(=O)NCCC(=O)N1CC2(CN(C)C2)C1 [Compound 6256, (2S)-2-{[(2S)-1-(2-methyl-1,3-oxazole-4-carbonyl)pyrrolidin-2-yl]formamido}-N-[(1S)-3-methyl-1-[(1-methyl-1-[(1S)-3-methyl-1-{[(1S)-3-methyl-1-{{[1-methyl-1-({1-methyl-1-[(3-{6-methyl-2,6-diazaspiro[3.3]heptan-2-yl}-3-oxopropyl)carbamoyl]ethyl}carbamoyl)ethyl]carbamoyl}butyl]carbamoyl}butyl]carbamoyl}ethyl)carbamoyl]butyl]decanamide] ({Oxazole4CO(2-Me)}-P[Gly(octyl)]L[Aib]LL[Aib][Aib][βAla]-X24) | 316 nM | 4010 nM | 8670 nM | > 8060 nM | – |
| CCCCCCCC[C@H](NC(=O)[C@@H]1CCCN1C(=O)c1coc(-c2ccccc2)n1)C(=O)N[C@@H](CC(C)C)C(=O)NC(C)(C)C(=O)N[C@@H](CC(C)C)C(=O)N[C@@H](CC(C)C)C(=O)NC(C)(C)C(=O)NC(C)(C)C(=O)NCCC(=O)N[C@@H](C)CN(C)C [Compound 5906, (2S)-N-[(1S)-1-[(1-{[(1S)-1-{[(1S)-1-{[1-({1-[(2-{[(2S)-1-(dimethylamino)propan-2-yl]carbamoyl}ethyl)carbamoyl]-1-methylethyl}carbamoyl)-1-methylethyl]carbamoyl}-3-methylbutyl]carbamoyl}-3-methylbutyl]carbamoyl}-1-methylethyl)carbamoyl]-3-methylbutyl]-2-{[(2S)-1-(2-phenyl-1,3-oxazole-4-carbonyl)pyrrolidin-2-yl]formamido}decanamide] (X3-P[Gly(octyl)]L[Aib]LL[Aib][Aib][βAla]-{NH((S)CH(Me)CH2NMe2)}) | – | – | – | 445 nM | – |
| O=C(Cn1ccnc1[N+](=O)[O-])NCc1ccccc1 [Benznidazole, benznidazole] | – | – | – | – | IC50 ([2]; Trypanosoma cruzi, standard drug, T. cruzi Tulahuen C2C4 in L6-cells, read-out: IC50): 0.48 µg/mL |
